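Grown in 96-well plates, cells were treated for 48 hours with each compound at five concentrations. Insufficient inhibition: endpoint recorded as highest concentration tested. TGI: total growth inhibition.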
Assays:
Assay in all cases: NCI anticancer screen, dose series, 48 h
[1] = test system: OVCAR-8 ovarian
[2] = test system: A498 renal
[3] = test system: OVCAR-3 ovarian
[4] = test system: CAKI-1 renal
[5] = test system: NCI-H23 lung
[6] = test system: HCC-2998 colon
[7] = test system: OVCAR-4 ovarian
[8] = test system: CCRF-CEM leukemia
[9] = test system: SK-MEL-5 melanoma
[10] = test system: MDA-MB-435
[11] = test system: U251 CNS
[12] = test system: NCI-H226 lung
[13] = test system: HCT-116 colon
[14] = test system: NCI/ADR-RES ovarian
[15] = test system: EKVX NSCLC
[16] = test system: BT-549 breast
[17] = test system: KM12 colon
[18] = test system: MCF7 breast
[19] = test system: MDA-MB-231 breast
[20] = test system: TK-10 renal
[21] = test system: COLO 205 colon
[22] = test system: HCT-15 colon
[23] = test system: HOP-62 NSCLC
[24] = test system: MDA-N
[25] = test system: IGROV1 ovarian
[26] = test system: UACC-257 melanoma
[27] = test system: SW-620 colon
[28] = test system: SN12C renal
[29] = test system: M14 melanoma
[30] = test system: ACHN renal
[31] = test system: MOLT-4 leukemia
[32] = test system: DU-145 prostate
[33] = test system: SR leukemia
[34] = test system: OVCAR-5 ovarian
[35] = test system: SF-295 CNS
[36] = test system: SNB-75 CNS
[37] = test system: PC-3 prostate
[38] = test system: K-562 leukemia
[39] = test system: MALME-3M melanoma
[40] = test system: SK-OV-3 ovarian
[41] = test system: UO-31 renal
[42] = test system: SF-268 CNS
[43] = test system: SNB-19 CNS
[44] = test system: SK-MEL-2 melanoma
[45] = test system: RPMI-8226 leukemia
[46] = test system: HT29 colon
[47] = test system: LOX IMVI melanoma
[48] = test system: HS 578T breast
[49] = test system: NCI-H522 lung
[50] = test system: RXF 393 renal
[51] = test system: NCI-H460 lung
[52] = test system: 786-0 renal
[53] = test system: A549 NSCLC
[54] = test system: SK-MEL-28 melanoma
[55] = test system: UACC-62 melanoma
[56] = test system: T-47D breast
[57] = test system: HL-60(TB) leukemia
[58] = test system: SF-539 CNS
[59] = test system: HOP-92 NSCLC

Question: With `CC(C)c1ccc2[nH]c(O)c(-c3[nH]c4ccccc4c3N=O)c2c1` as the compound, how does the TGI [1] read?
Answer: 14.6 µM

Question: What about the TGI [2] of the same compound?
Answer: 9.29 µM

Question: What about the TGI [3] of the same compound?
Answer: 20.7 µM

Question: And the TGI [4]?
Answer: 22.9 µM

Question: And the TGI [5]?
Answer: 16.1 µM

Question: And the TGI [6]?
Answer: 16.1 µM

Question: What about the TGI [7] of the same compound?
Answer: 17.6 µM

Question: And the TGI [8]?
Answer: 12.9 µM

Question: And the TGI [9]?
Answer: 15.8 µM

Question: And the TGI [10]?
Answer: 20.5 µM

Question: And the TGI [11]?
Answer: 19.9 µM

Question: And the TGI [12]?
Answer: 29.4 µM

Question: And the TGI [13]?
Answer: 14 µM

Question: What about the TGI [14] of the same compound?
Answer: 22 µM

Question: And the TGI [15]?
Answer: 16.6 µM

Question: And the TGI [16]?
Answer: 19.4 µM

Question: What about the TGI [17] of the same compound?
Answer: 15.6 µM

Question: What about the TGI [18] of the same compound?
Answer: 5.71 µM

Question: And the TGI [19]?
Answer: 29.8 µM

Question: And the TGI [20]?
Answer: 43.4 µM

Question: And the TGI [21]?
Answer: 18.1 µM

Question: What about the TGI [22] of the same compound?
Answer: 14.8 µM

Question: What about the TGI [23] of the same compound?
Answer: 25.2 µM

Question: And the TGI [24]?
Answer: 19.2 µM

Question: What about the TGI [25] of the same compound?
Answer: 21.2 µM

Question: And the TGI [26]?
Answer: 24.5 µM

Question: And the TGI [27]?
Answer: 25.2 µM

Question: And the TGI [28]?
Answer: 16.8 µM

Question: What about the TGI [29] of the same compound?
Answer: 23.6 µM

Question: And the TGI [30]?
Answer: 14.6 µM

Question: What about the TGI [31] of the same compound?
Answer: 15.1 µM

Question: And the TGI [32]?
Answer: 20.8 µM

Question: And the TGI [33]?
Answer: 7.32 µM

Question: What about the TGI [34] of the same compound?
Answer: 30.5 µM

Question: And the TGI [35]?
Answer: 16.3 µM

Question: What about the TGI [36] of the same compound?
Answer: 26.3 µM

Question: And the TGI [37]?
Answer: 19.4 µM

Question: And the TGI [38]?
Answer: 17.8 µM

Question: What about the TGI [39] of the same compound?
Answer: 14.4 µM

Question: What about the TGI [40] of the same compound?
Answer: 19.6 µM

Question: And the TGI [41]?
Answer: 12 µM

Question: And the TGI [42]?
Answer: 20.4 µM

Question: What about the TGI [43] of the same compound?
Answer: 36.1 µM

Question: And the TGI [44]?
Answer: 15.1 µM

Question: And the TGI [45]?
Answer: 22.3 µM

Question: And the TGI [46]?
Answer: 15 µM

Question: What about the TGI [47] of the same compound?
Answer: 17.7 µM

Question: What about the TGI [48] of the same compound?
Answer: 17.7 µM

Question: What about the TGI [49] of the same compound?
Answer: 14.6 µM

Question: What about the TGI [50] of the same compound?
Answer: 6.66 µM

Question: What about the TGI [51] of the same compound?
Answer: 15.2 µM

Question: What about the TGI [52] of the same compound?
Answer: 16.8 µM

Question: What about the TGI [53] of the same compound?
Answer: 22.2 µM

Question: What about the TGI [54] of the same compound?
Answer: 26.7 µM

Question: And the TGI [55]?
Answer: 20.6 µM

Question: What about the TGI [56] of the same compound?
Answer: 25.4 µM

Question: What does the source list for `CCCCCCCCCCCCCCCCCCNc1ccn(C2OC(COP(=O)(O)OCC3OC(n4ccc(NC(=O)CCCCCCCCCCCCCCCCC)nc4=O)C(OC(C)=O)C3OC(C)=O)C(OC(C)=O)C2OC(C)=O)c(=O)n1` (configuration not stated)?
Answer: TGI [1]: > 100 µM; TGI [2]: > 100 µM; TGI [3]: > 100 µM; TGI [4]: > 100 µM; TGI [5]: > 100 µM; TGI [6]: > 100 µM; TGI [7]: > 100 µM; TGI [8]: > 100 µM; TGI [9]: > 100 µM; TGI [10]: > 100 µM; TGI [11]: > 100 µM; TGI [12]: > 100 µM; TGI [13]: > 100 µM; TGI [14]: > 100 µM; TGI [15]: > 100 µM; TGI [16]: > 100 µM; TGI [17]: > 100 µM; TGI [18]: > 100 µM; TGI [19]: > 100 µM; TGI [20]: > 100 µM; TGI [21]: > 100 µM; TGI [22]: > 100 µM; TGI [23]: > 100 µM; TGI [24]: > 100 µM; TGI [25]: > 100 µM; TGI [26]: > 100 µM; TGI [27]: > 100 µM; TGI [28]: > 100 µM; TGI [29]: > 100 µM; TGI [30]: > 100 µM; TGI [31]: > 100 µM; TGI [32]: > 100 µM; TGI [33]: > 100 µM; TGI [34]: > 100 µM; TGI [35]: > 100 µM; TGI [36]: > 100 µM; TGI [57]: > 100 µM; TGI [37]: > 100 µM; TGI [38]: > 100 µM; TGI [58]: > 100 µM; TGI [39]: > 100 µM; TGI [40]: > 100 µM; TGI [41]: > 100 µM; TGI [42]: > 100 µM; TGI [43]: > 100 µM; TGI [44]: > 100 µM; TGI [45]: > 100 µM; TGI [46]: > 100 µM; TGI [47]: > 100 µM; TGI [48]: > 100 µM; TGI [49]: > 100 µM; TGI [50]: > 100 µM; TGI [51]: > 100 µM; TGI [52]: > 100 µM; TGI [53]: > 100 µM; TGI [54]: > 100 µM; TGI [55]: > 100 µM; TGI [56]: > 100 µM

Question: Which TGI [1] does the source give for `CC(C)(N=NC(C)(C)C(=O)NCCO)C(=O)NCCO` here?
Answer: > 100 µM

Question: What about the TGI [2] of the same compound?
Answer: > 100 µM

Question: What about the TGI [3] of the same compound?
Answer: > 100 µM

Question: What about the TGI [4] of the same compound?
Answer: > 100 µM

Question: What about the TGI [5] of the same compound?
Answer: > 100 µM

Question: What about the TGI [6] of the same compound?
Answer: > 100 µM

Question: And the TGI [7]?
Answer: > 100 µM

Question: What about the TGI [8] of the same compound?
Answer: > 100 µM

Question: What about the TGI [9] of the same compound?
Answer: > 100 µM

Question: And the TGI [10]?
Answer: > 100 µM

Question: And the TGI [11]?
Answer: > 100 µM

Question: And the TGI [12]?
Answer: > 100 µM

Question: What about the TGI [13] of the same compound?
Answer: > 100 µM

Question: What about the TGI [14] of the same compound?
Answer: > 100 µM

Question: What about the TGI [15] of the same compound?
Answer: > 100 µM

Question: And the TGI [16]?
Answer: > 100 µM

Question: And the TGI [17]?
Answer: > 100 µM

Question: And the TGI [18]?
Answer: > 100 µM

Question: What about the TGI [19] of the same compound?
Answer: > 100 µM

Question: And the TGI [20]?
Answer: > 100 µM

Question: What about the TGI [21] of the same compound?
Answer: > 100 µM

Question: What about the TGI [22] of the same compound?
Answer: > 100 µM

Question: What about the TGI [23] of the same compound?
Answer: > 100 µM

Question: What about the TGI [24] of the same compound?
Answer: > 100 µM

Question: And the TGI [25]?
Answer: > 100 µM

Question: And the TGI [26]?
Answer: > 100 µM

Question: And the TGI [27]?
Answer: > 100 µM

Question: What about the TGI [28] of the same compound?
Answer: > 100 µM

Question: And the TGI [29]?
Answer: > 100 µM

Question: And the TGI [30]?
Answer: > 100 µM

Question: What about the TGI [31] of the same compound?
Answer: > 100 µM

Question: And the TGI [32]?
Answer: > 100 µM

Question: What about the TGI [33] of the same compound?
Answer: > 100 µM

Question: And the TGI [34]?
Answer: > 100 µM

Question: What about the TGI [35] of the same compound?
Answer: > 100 µM

Question: And the TGI [57]?
Answer: > 100 µM

Question: What about the TGI [37] of the same compound?
Answer: > 100 µM

Question: And the TGI [38]?
Answer: > 100 µM

Question: And the TGI [58]?
Answer: > 100 µM

Question: What about the TGI [39] of the same compound?
Answer: > 100 µM

Question: What about the TGI [40] of the same compound?
Answer: > 100 µM

Question: What about the TGI [41] of the same compound?
Answer: > 100 µM

Question: What about the TGI [42] of the same compound?
Answer: > 100 µM

Question: And the TGI [59]?
Answer: > 100 µM

Question: What about the TGI [43] of the same compound?
Answer: > 100 µM

Question: And the TGI [44]?
Answer: > 100 µM

Question: What about the TGI [45] of the same compound?
Answer: > 100 µM

Question: And the TGI [46]?
Answer: > 100 µM

Question: What about the TGI [47] of the same compound?
Answer: > 100 µM

Question: And the TGI [48]?
Answer: > 100 µM

Question: What about the TGI [49] of the same compound?
Answer: > 100 µM

Question: What about the TGI [50] of the same compound?
Answer: > 100 µM

Question: What about the TGI [51] of the same compound?
Answer: > 100 µM

Question: What about the TGI [52] of the same compound?
Answer: > 100 µM

Question: And the TGI [53]?
Answer: > 100 µM

Question: And the TGI [54]?
Answer: > 100 µM

Question: What about the TGI [55] of the same compound?
Answer: > 100 µM

Question: And the TGI [56]?
Answer: > 100 µM

— PubChem BioAssay (NCI)
